34 molecules from the METLIN SMRT retention time set (Domingo-Almenara et al. 2019) can be followed below.

This data set in a line: gradient 5% acetonitrile 3 min, to 50% in 2 min, to 85% in 15 min, held 3 min, 100 µL/min. To be noted: column: Zorbax Extend-C18 2.1 x 50 mm; eluents: water / acetonitrile, 0.1% formic acid. The essentials: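 The system's dead and dwell volumes were 40 μL and 900 μL, with a Zorbax Extend-C18 column (2.1 × 50 mm, 1.8 μm) run at 100 μL/min in water and acetonitrile containing 0.1% formic acid each. Pure standards were analyzed in mixtures of ~100 molecules by HPLC–quadrupole time-of-flight mass spectrometry in positive and negative ionization mode. Retention time was assigned from computationally picked, manually inspected adduct peaks.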
For the molecule `O=C(c1cccc(C(F)(F)F)c1)N1CCN(c2nc(CN3CCOCC3)cs2)CC1`, the RP-LC retention time was determined as 644 s.
The value for `Cc1cccc(CN2C(=O)N(c3ccc(F)cc3)c3ncccc3S2(=O)=O)c1` was 1090 s; that for `CCN1C(=O)NC(c2ccccc2C(F)(F)F)C2=C1CN(CCC(=O)NCCOC)C2=O` (centres undefined) was 928 s.
Regarding `Cc1ccc(NC(=O)Cn2c(=O)cc(-c3nc(C4CC4)no3)c3ccccc32)cc1F`, the RP-LC retention time worked out at 1020 s.
The value for `COc1ccc(OC)c(-c2cc(C(=O)NCC#CCN3CCc4ccccc4C3)[nH]n2)c1` was 592 s; that for `CC(Oc1ccccc1)C(=O)NCCCn1cccc1` (centres undefined) was 783 s; that for `Cc1cnc(-n2nnc(C(=O)N3CCOCC3)c2C)s1` was 658 s.
The value for `Cc1sc(-c2cc(C(F)(F)F)on2)cc1S(=O)(=O)NCc1ccc(F)cc1` was 1160 s.
In the case of `CCOC(=O)c1c(C)c(CCC(=O)N2CCN(c3ccccn3)CC2)n(C)c1C`, the RP-LC retention time is 616 s.
The value for `CCOc1ccc(C(=O)N2CCc3nc[nH]c3C2)cc1` was 565 s; that for `CCN1CCN(C2CCN(C(=O)c3ccco3)CC2)C1=O` was 627 s.
The value for `O=C(C1CCCC1)N1CCCC1c1nc(C2CCOCC2)no1` (centres undefined) was 725 s; that for `COc1nn(C)cc1C(=O)Nc1cc(-c2cccs2)nn1CCO` was 630 s; that for `Oc1cc2c(c(Cl)c1O)CCNC[C@@H]2c1ccccc1` was 648 s.
The value for `Cc1cc(=O)n(CC(=O)Nc2c(C)cccc2C)c(N2CCOCC2)n1` was 612 s; that for `O=C(NCc1cccc(F)c1)C1CCCN(c2nnc3c(Cl)cccn23)C1` (centres undefined) was 701 s; that for `CCCCS(=O)(=O)c1cc2c(cc1NC(=O)c1ccc(Br)cc1)n(C)c(=O)n2C` was 1020 s.
In turn, `O=C1c2ccccc2C(=O)c2sc(Nc3ccc(Cl)c(Cl)c3)nc21` registered an RP-LC retention time of 1140 s.
The value for `CCOc1ccc(C(=O)NCCCN2CCN(c3ccccc3)CC2)cc1` was 586 s.
To `O=S(=O)(c1ccccc1)N1CCC(c2noc(C3CC3)n2)C1` (centres undefined) belongs 866 s; to `O=C(CCC1CCN(S(=O)(=O)c2ccccc2F)CC1)NC1CCS(=O)(=O)C1` (centres undefined), 685 s; to `COCCNCc1ccc(-c2cc(Cl)ccc2Cl)o1`, 684 s.
In turn, `Cc1c2c(nn1-c1ccc(SCc3ccc(F)cc3)nn1)CCC2` displayed an RP-LC retention time of 1280 s.
To `Clc1ccc(OCc2nn3c(CSc4ccccc4)nnc3s2)cc1` belongs 1040 s; to `CCS(=O)(=O)Nc1ccc(-c2noc(COc3ccc(Cl)cc3)n2)cc1`, 1010 s; to `O=c1c2ccccc2c(-c2nc(-c3ccncc3)no2)cn1-c1ccc(Cl)cc1`, 1140 s.
To `CCOC(=O)COC(=O)c1cn(-c2cccc(F)c2)c(=O)c2ccccc12` belongs 1020 s; to `C=Cc1ccc(Cn2ccn(-c3cccc(Cl)c3C)c(=O)c2=O)cc1`, 843 s.
The molecule `O=C(NCc1ccccc1F)c1cn(-c2ccc(-c3nc(C4CC4)no3)cn2)cn1` displayed an RP-LC retention time of 929 s.
The value for `CC1CC(=O)Nc2ccccc2N1C(=O)c1ccc(Cl)cc1` (centres undefined) was 743 s; that for `Cn1c(=O)n(C)c2cc(N3CCCC3)c(NC(=O)Cc3ccccc3)cc21` was 670 s; that for `CCc1nnc(-c2cccnc2N2CCN(C(=O)Nc3cc(Cl)cc(Cl)c3)CC2)o1` was 968 s.
To `CC1=C(C(=O)Nc2ccccc2C)C(c2ccc(Cl)cc2Cl)NC(=O)N1` (centres undefined) belongs 704 s; to `COc1cc(NC(=O)CN2C(=O)C(O)(c3ccccc3)c3ccccc32)cc(OC)c1` (centres undefined), 872 s.
